Source: patent US9902717B2, “Process of preparing potassium salt of Azilsartan medoxomil” (Unichem Laboratories Limited, priority 2015, dated 2018)

Experiment: Stability study of polymorph U of Azilsartan Kamedoxomil at 5±3° C. for 6 months
Assay type: physicochemical
Details: for 01) Description White to off-white coloured powder / 02) Identification By HPLC: retention time of the major peak should correspond to Azilsartan Kamedoxomil Standard preparation / 03) Loss on drying (at 60° C. under vacuum for 3 hrs) NMT 1.0% w/w / 04) Related substances Method 1: By HPLC (by Area %) i) Azilsartan NMT 1.0% / 04) Related substances Method 1: By HPLC (by Area %) ii) Azilsartan ester NMT 0.3% / 04) Related substances Method 1: By HPLC (by Area %) iii) Impurity at RRT about 1.04 NMT 0.3% / 04) Related substances Method 1: By HPLC (by Area %) iv) Any individual unspecified impurity NMT 0.2% / 04) Related substances Method 1: By HPLC (by Area %) v) Total impurities NMT 2.5% / 04) Related substances Method 2: By GCHS i) Content of 2, 3 butanedione by GCHS: NMT 0.5% / 05) Assay by HPLC (On dried basis) NLT 97.5% w/w and NMT 102.0% w/w: stability testing at 5±3° C.

Structure (SMILES): CCOc1nc2cccc(C(=O)OCc3oc(=O)oc3C)c2n1Cc1ccc(-c2ccccc2-c2noc(=O)[nH]2)cc1.[K] [polymorph U, (5-methyl-2-oxo-1,3-dioxo-4-yl)methyl-2-ethoxy-1-1{[2′-(5-oxo-4,5-dihydro-1,2,4-oxadiazol-3-yl)biphenyl-4yl]methyl}-1H-benzimidazole-7-carboxylate monopotassium salt]
- change in XRPD pattern (polymorphic change) (stability testing at 5±3° C. for 6 Months): no change
- 01) Description White to off-white coloured powder (6 M): White
- 02) Identification By HPLC: retention time of the major peak should correspond to Azilsartan Kamedoxomil Standard preparation (6 M): Complies
- 03) Loss on drying (at 60° C. under vacuum for 3 hrs) NMT 1.0% w/w (6 M): 0.26% w/w
- 04) Related substances Method 1: By HPLC (by Area %) i) Azilsartan NMT 1.0% (6 M): 0.18%
- 04) Related substances Method 1: By HPLC (by Area %) ii) Azilsartan ester NMT 0.3% (6 M): 0.01%
- 04) Related substances Method 1: By HPLC (by Area %) iii) Impurity at RRT about 1.04 NMT 0.3% (6 M): 0.08%
- 04) Related substances Method 1: By HPLC (by Area %) iv) Any individual unspecified impurity NMT 0.2% (6 M): 0.03%
- 04) Related substances Method 1: By HPLC (by Area %) v) Total impurities NMT 2.5% (6 M): 0.43%
- 04) Related substances Method 2: By GCHS i) Content of 2, 3 butanedione by GCHS: NMT 0.5% (6 M): 0.13%
- 05) Assay by HPLC (On dried basis) NLT 97.5% w/w and NMT 102.0% w/w (6 M): 100.3% w/w
- 01) Description White to off-white coloured powder (Initial): White
- 02) Identification By HPLC: retention time of the major peak should correspond to Azilsartan Kamedoxomil Standard preparation (Initial): Complies
- 03) Loss on drying (at 60° C. under vacuum for 3 hrs) NMT 1.0% w/w (Initial): 0.44% w/w
- 04) Related substances Method 1: By HPLC (by Area %) i) Azilsartan NMT 1.0% (Initial): 0.19%
- 04) Related substances Method 1: By HPLC (by Area %) ii) Azilsartan ester NMT 0.3% (Initial): 0.01%
- 04) Related substances Method 1: By HPLC (by Area %) iii) Impurity at RRT about 1.04 NMT 0.3% (Initial): 0.09%
- 04) Related substances Method 1: By HPLC (by Area %) iv) Any individual unspecified impurity NMT 0.2% (Initial): 0.03%
- 04) Related substances Method 1: By HPLC (by Area %) v) Total impurities NMT 2.5% (Initial): 0.56%
- 04) Related substances Method 2: By GCHS i) Content of 2, 3 butanedione by GCHS: NMT 0.5% (Initial): 0.13% w/w
- 05) Assay by HPLC (On dried basis) NLT 97.5% w/w and NMT 102.0% w/w (Initial): 101.7 w/w
- Stability (studied at 5±3° C.): stable
